In patent publication US20250034165A1, “COMPOUND CONTAINING CYCLOALKYL OR HALOALKYL” (CHIA TAI TIANQING PHARMACEUTICAL GROUP CO., LTD., priority 2021, published 2025):
Where two headings read alike, the source gives them in different places.

What was measured:
[1] = target: EGFR (d746-750/T790M/C797S) (Homo sapiens (Human), UniProt P00533, C797S/DEL746-750/T790M); test: Inhibitory activity for EGFR (d746-750/T790M/C797S) kinase; assay type: biochemical; settings: ATP 5 μM; read-out: EGFR(d19/T790M/C797S) (IC50)
How it was run: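 EGFR d746-750/T790M/C797S (0.03 ng/μL final) preincubated 30 min with compound (10 nM–0.0024 nM, 4-fold, 7 points). Reaction with 5 μM ATP and 0.1 μM ULight-poly GT, 2 h at room temperature; EDTA stop, Eu-anti-phosphotyrosine TR-FRET read at 665 nm, IC50 by four-parameter fit.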

EGFR (L858R/T790M) = EGFR (L858R/T790M) (Homo sapiens (Human), UniProt P00533, L858R/T790M); test: Inhibitory activity for EGFR (L858R/T790M) kinase; assay type: biochemical; settings: ATP 5 μM
Experimental: A 50 ng/μL EGFR (L858R/T790M, Carna) stock solution was diluted with a kinase buffer (50 mM HEPES, 10 mM MgCl2, 2 mM DTT, 1 mM EGTA, 0.01% Tween 20), and 6 μL of 1.67× working solution at 0.004175 ng/μL (final concentration: 0.0025 ng/μL) was added to each well. Different compounds dissolved in DMSO were added to wells using a nanoliter pipettor, resulting in the final concentrations of the compounds of 10 nM to 0.0024 nM (4-fold gradient, 7 concentrations in total), and blank control wells (without enzyme) and negative control wells (with enzyme, plus vehicle DMSO) were set, 2 replicate wells for each concentration. After enzyme was reacted with the compound or vehicle for 30 min, 5×ATP at 25 μM (final concentration: 5 μM, Sigma) prepared with a kinase buffer was mixed with 5× substrate at 0.5 μM (final concentration: 0.1 μM, ULight-poly GT, PerkinElmer) at a ratio of 1:1 (v:v), and the mixture was added to each well at 4 μL/well. After being sealed with a film, the plate was incubated at room temperature for 2 h, and then 5 μL of 4×EDTA at 40 mM (final concentration: 10 mM) was added to each well. After the plate was incubated for 5 min at room temperature, 5 μL of 4× detection reagent at 8 nM (final concentration: 2 nM, Eu-anti-phospho-tyrosine antibody, PerkinElmer) was added to each well. After being incubated at room temperature for 1 h, the plate was read using a PerkinElmer Envision multi-mode microplate reader (excitation: 320 nm, emission: 665 nm), and IC50 was calculated by four-parameter fitting.

[2] = target: EGFR (d746-750 (d19)/T790M) (Homo sapiens (Human), UniProt P00533, DEL746-750/T790M); test: Inhibitory activity for EGFR (d746-750 (d19)/T790M) kinase; assay type: biochemical; settings: ATP 5 μM
How it was run: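 Recombinant EGFR d746-750/T790M (0.003 ng/μL final) preincubated 30 min with compound (10 to 0.0024 nM, 4-fold steps), then 5 μM ATP and 0.1 μM ULight-poly GT added for 2 h at room temperature. EDTA stop, Eu-anti-phosphotyrosine TR-FRET read (665 nm); IC50 by four-parameter fit.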

[3] = system: BAF3-EGFR (L858R/T790M/C797S) cells; test: Inhibition of proliferation of BAF3-EGFR (L858R/T790M/C797S) cells, CCK-8; assay type: cell-based; settings: 72 h, read-out: BAF3(EGFR T790M L858R C797S) cell inhibitory activity IC50
How it was run: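 BaF3 EGFR L858R/T790M/C797S cells seeded at 1.5×10^5 cells/mL in RPMI + 10% FBS, 37 °C, compound added after overnight, duplicates. Viability by CCK-8; % inhibition vs untreated and blank, IC50 by four-parameter fit.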

EGFR (d746-750/T790M/C797S), sequence (P00533 other isoform, or with tags, fused parts or gaps T790M/C797S/del 1-694/del 746-750 limits assumed): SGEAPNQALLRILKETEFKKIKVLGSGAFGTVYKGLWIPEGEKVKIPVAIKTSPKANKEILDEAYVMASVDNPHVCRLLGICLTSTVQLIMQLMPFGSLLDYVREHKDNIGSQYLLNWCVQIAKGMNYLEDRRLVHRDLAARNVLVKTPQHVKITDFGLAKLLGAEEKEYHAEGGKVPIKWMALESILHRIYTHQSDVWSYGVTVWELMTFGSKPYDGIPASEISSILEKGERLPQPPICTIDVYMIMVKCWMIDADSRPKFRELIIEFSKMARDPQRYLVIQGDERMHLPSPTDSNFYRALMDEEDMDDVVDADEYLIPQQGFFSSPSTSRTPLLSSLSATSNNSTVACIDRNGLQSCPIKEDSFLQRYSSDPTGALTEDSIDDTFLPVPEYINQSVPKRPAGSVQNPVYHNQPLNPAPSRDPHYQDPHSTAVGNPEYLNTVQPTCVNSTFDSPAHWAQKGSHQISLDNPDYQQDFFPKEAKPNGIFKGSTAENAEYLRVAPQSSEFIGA
EGFR (L858R/T790M), sequence (P00533 25-1210 T790M/L858R): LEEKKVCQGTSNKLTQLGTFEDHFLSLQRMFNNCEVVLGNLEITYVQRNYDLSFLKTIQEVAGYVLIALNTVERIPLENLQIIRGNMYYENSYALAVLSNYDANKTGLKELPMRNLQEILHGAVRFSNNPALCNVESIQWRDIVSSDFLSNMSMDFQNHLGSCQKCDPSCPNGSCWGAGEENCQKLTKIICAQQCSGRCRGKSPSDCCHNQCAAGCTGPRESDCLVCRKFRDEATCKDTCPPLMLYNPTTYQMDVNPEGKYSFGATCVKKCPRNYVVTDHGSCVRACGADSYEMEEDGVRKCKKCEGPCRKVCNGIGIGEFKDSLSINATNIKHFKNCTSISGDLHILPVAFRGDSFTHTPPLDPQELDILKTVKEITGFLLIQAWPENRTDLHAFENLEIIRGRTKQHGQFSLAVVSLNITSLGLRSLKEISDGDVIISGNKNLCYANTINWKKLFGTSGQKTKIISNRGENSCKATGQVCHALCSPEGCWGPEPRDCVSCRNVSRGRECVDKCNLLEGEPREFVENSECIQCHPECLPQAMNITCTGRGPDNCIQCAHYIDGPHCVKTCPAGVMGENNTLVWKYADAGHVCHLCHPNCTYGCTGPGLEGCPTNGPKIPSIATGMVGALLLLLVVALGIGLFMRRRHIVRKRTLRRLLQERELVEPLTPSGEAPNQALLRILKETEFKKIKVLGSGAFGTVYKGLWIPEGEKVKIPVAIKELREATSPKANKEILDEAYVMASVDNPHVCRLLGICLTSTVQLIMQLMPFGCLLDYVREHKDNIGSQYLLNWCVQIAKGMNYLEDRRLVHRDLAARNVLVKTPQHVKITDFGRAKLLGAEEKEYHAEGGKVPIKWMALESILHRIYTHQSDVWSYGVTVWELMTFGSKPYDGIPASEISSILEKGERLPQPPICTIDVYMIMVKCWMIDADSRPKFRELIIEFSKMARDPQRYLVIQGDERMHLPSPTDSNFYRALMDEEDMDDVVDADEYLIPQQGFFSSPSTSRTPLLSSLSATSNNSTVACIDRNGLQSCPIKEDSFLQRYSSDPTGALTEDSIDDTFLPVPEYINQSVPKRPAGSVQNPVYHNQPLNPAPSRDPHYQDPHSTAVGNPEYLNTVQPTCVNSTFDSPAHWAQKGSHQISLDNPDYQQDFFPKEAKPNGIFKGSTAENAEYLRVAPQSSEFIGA
EGFR (d746-750 (d19)/T790M), sequence (P00533 other isoform, or with tags, fused parts or gaps T790M/del 1-668/del 746-750 limits assumed): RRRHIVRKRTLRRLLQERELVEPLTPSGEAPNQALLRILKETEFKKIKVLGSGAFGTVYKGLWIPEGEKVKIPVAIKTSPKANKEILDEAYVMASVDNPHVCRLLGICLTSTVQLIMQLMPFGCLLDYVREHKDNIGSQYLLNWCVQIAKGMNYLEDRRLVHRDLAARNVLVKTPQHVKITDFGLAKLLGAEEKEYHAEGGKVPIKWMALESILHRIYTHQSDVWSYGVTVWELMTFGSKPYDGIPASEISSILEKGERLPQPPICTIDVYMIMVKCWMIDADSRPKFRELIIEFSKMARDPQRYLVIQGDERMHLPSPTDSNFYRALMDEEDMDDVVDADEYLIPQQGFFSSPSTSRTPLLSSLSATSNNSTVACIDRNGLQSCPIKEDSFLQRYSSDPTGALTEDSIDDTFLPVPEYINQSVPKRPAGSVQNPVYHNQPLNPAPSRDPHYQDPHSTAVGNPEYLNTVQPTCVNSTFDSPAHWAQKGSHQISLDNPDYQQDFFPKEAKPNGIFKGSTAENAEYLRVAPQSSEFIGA

| IC50 [1] | IC50 (EGFR (L858R/T790M)) | IC50 [2] | IC50 [3] | IC50 ([3]; Ba/F3 EGFR) | Compound |
| --- | --- | --- | --- | --- | --- |
| 0.45 nM | 0.45 nM | 0.28 nM |  |  | C[C@H](Nc1ccc2c(c1)N/C1=N\C(=O)c3cc(F)nc(c3)-c3cnn(C)c3OCCC[C@@H](C3CC3)CN12)C(F)(F)F [Example 9] |
| 0.021 nM | 0.031 nM | 0.016 nM | < 5 nM |  | Cc1cc2cc(n1)-c1cnn(C)c1OCCC[C@@H](C1CC1)CN1/C(=N/C2=O)Nc2ccc(C=CCCN(C)C)cc21 [Example 24] |
| 0.014 nM | 0.021 nM | 0.011 nM | < 5 nM |  | Cc1cc2cc(n1)-c1cnn(C)c1OCCC[C@@H](C1CC1)CN1/C(=N/C2=O)Nc2cc(N[C@H]3CC[C@H](N(C)C)CC3)ccc21 [Example 25] |
| 0.017 nM | 0.025 nM | 0.011 nM | < 5 nM |  | Cc1cc2cc(n1)-c1cnn(C)c1OCCC[C@@H](C1CC1)CN1/C(=N/C2=O)Nc2cc(N[C@H]3CC[C@@H](N(C)C)CC3)ccc21 [Example 26] |
| 0.011 nM |  | 0.0072 nM |  | < 5 nM | Cc1cc2cc(n1)-c1cnn(C)c1OCCC[C@@H](C1CC1)CN1/C(=N/C2=O)Nc2ccc(NCCN(C)C)cc21 [Example 28] |
| 0.015 nM |  | 0.0089 nM |  | < 5 nM | Cc1cc2cc(n1)-c1cnn(C)c1OCCC[C@@H](C1CC1)CN1/C(=N/C2=O)Nc2cc(NC3(C)COC3)ccc21 [Example 29] |
| 0.024 nM | 0.04 nM | 0.012 nM | < 5 nM |  | Cc1cc2cc(n1)-c1cnn(C)c1OCCC[C@@H](C1CC1)CN1/C(=N/C2=O)Nc2cc(N[C@H](C)C3COC3)ccc21 [Example 39] |
| 0.074 nM | 0.081 nM | 0.04 nM |  |  | Cc1cc2cc(n1)-c1cnn(C)c1OC[C@H](C1CC1)CCCn1c(nc3ccc(NC4COC4)cc31)NC2=O [Example 59] |
| 0.07 nM | 0.09 nM | 0.039 nM |  |  | Cc1cc2cc(n1)-c1cnn(C)c1OC[C@H](C1CC1)CCCn1c(nc3cc(NC4COC4)ccc31)NC2=O [Example 60] |
| 0.181 nM | 0.01 nM | 0.044 nM |  | < 5 nM | Cc1cc2cc(n1)-c1cnn(C)c1OCCC[C@@H](C1CC1)CN1/C(=N/C2=O)Nc2cc(NC3(C(F)(F)F)COC3)ccc21 [Example 88] |
